pIC50: −log10 of the molar value. Values joined by “and” are separate entries in the source; they are usually repeats but may differ in a detail not shown here. Equal entries are not always repeated. Each block holds one molecule with its values, some of them ahead of it.
Tested on: 349418-098-R-PDC complex spheroid viability
Test: Anticancer human tumor 349418-098-R-PDC patient-derived lung adenocarcinoma cell line growth inhibition
Details: for viability, T/C: stronger effect = lower value
How it was run: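 Drug combinations with the LSD1 inhibitor iadademstat tested on tumor cells co-cultured as spheroids with endothelial cells and mesenchymal stem cells. Concentrations descended in half-log increments from clinical Cmax or 10 microM.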

[1] = curve of first compound, second compound 0.1 µM
[2] = curve of first compound, second compound 0.316 µM
[3] = curve of first compound, second compound 1 µM
[4] = curve of first compound, second compound 3.16 µM
[5] = curve of first compound, second compound 10 µM
[6] = second compound 0.1 µM, first compound 0.0316 µM
[7] = second compound 0.1 µM, first compound 0.1 µM
[8] = second compound 0.1 µM, first compound 0.316 µM
[9] = second compound 0.1 µM, first compound 1 µM
[10] = second compound 0.316 µM, first compound 0.0316 µM
[11] = second compound 0.316 µM, first compound 0.1 µM
[12] = second compound 0.316 µM, first compound 0.316 µM
[13] = second compound 0.316 µM, first compound 1 µM
[14] = second compound 1 µM, first compound 0.0316 µM
[15] = second compound 1 µM, first compound 0.1 µM
[16] = second compound 1 µM, first compound 0.316 µM
[17] = second compound 1 µM, first compound 1 µM
[18] = second compound 3.16 µM, first compound 0.0316 µM
[19] = second compound 3.16 µM, first compound 0.1 µM
[20] = second compound 3.16 µM, first compound 0.316 µM
[21] = second compound 3.16 µM, first compound 1 µM
[22] = second compound 10 µM, first compound 0.0316 µM
[23] = second compound 10 µM, first compound 0.1 µM
[24] = second compound 10 µM, first compound 0.316 µM
[25] = second compound 10 µM, first compound 1 µM
[26] = second compound 0.1 µM, first compound 0.000316 µM
[27] = second compound 0.1 µM, first compound 0.001 µM
[28] = second compound 0.1 µM, first compound 0.00316 µM
[29] = second compound 0.1 µM, first compound 0.01 µM
[30] = second compound 0.316 µM, first compound 0.000316 µM
[31] = second compound 0.316 µM, first compound 0.001 µM
[32] = second compound 0.316 µM, first compound 0.00316 µM
[33] = second compound 0.316 µM, first compound 0.01 µM
[34] = second compound 1 µM, first compound 0.000316 µM
[35] = second compound 1 µM, first compound 0.001 µM
[36] = second compound 1 µM, first compound 0.00316 µM
[37] = second compound 1 µM, first compound 0.01 µM
[38] = second compound 3.16 µM, first compound 0.000316 µM
[39] = second compound 3.16 µM, first compound 0.001 µM
[40] = second compound 3.16 µM, first compound 0.00316 µM
[41] = second compound 3.16 µM, first compound 0.01 µM
[42] = second compound 10 µM, first compound 0.000316 µM
[43] = second compound 10 µM, first compound 0.001 µM
[44] = second compound 10 µM, first compound 0.00316 µM
[45] = second compound 10 µM, first compound 0.01 µM
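Further: spheroids exposed to agents for seven days before readout.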
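Wherever viability, T/C is given: 100% = DMSO vehicle control wells.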

Structure (SMILES): O=C(c1cc(Cc2n[nH]c(=O)c3ccccc23)ccc1F)N1CCN(C(=O)C2CC2)CC1 + NC1CC1c1ccc(-c2cccc(O)c2)cc1
pIC50 [1]: 5.05
pIC50 [2]: 5.09
pIC50 [3]: 5.09
pIC50 [4]: < 5.00
pIC50 [5]: 5.50
viability, T/C [6]: 106%
viability, T/C [7]: 108%
viability, T/C [8]: 99.3%
viability, T/C [9]: 99.3%
viability, T/C (second compound 0.1 µM, first compound 3.16 µM): 86%
viability, T/C (second compound 0.1 µM, first compound 10 µM): 45.5%
viability, T/C [10]: 111%
viability, T/C [11]: 105%
viability, T/C [12]: 103%
viability, T/C [13]: 98.5%
viability, T/C (second compound 0.316 µM, first compound 3.16 µM): 77.6%
viability, T/C (second compound 0.316 µM, first compound 10 µM): 43.9%
viability, T/C [14]: 116%
viability, T/C [15]: 106%
viability, T/C [16]: 105%
viability, T/C [17]: 104%
viability, T/C (second compound 1 µM, first compound 3.16 µM): 69.1%
viability, T/C (second compound 1 µM, first compound 10 µM): 45.5%
viability, T/C [18]: 116%
viability, T/C [19]: 111%
viability, T/C [20]: 101%
viability, T/C [21]: 105%
viability, T/C (second compound 3.16 µM, first compound 3.16 µM): 75.5%
viability, T/C (second compound 3.16 µM, first compound 10 µM): 52.3%
viability, T/C [22]: 97.1%
viability, T/C [23]: 90.3%
viability, T/C [24]: 75.2%
viability, T/C [25]: 67%
viability, T/C (second compound 10 µM, first compound 3.16 µM): 49.9%
viability, T/C (second compound 10 µM, first compound 10 µM): 33.6%

Structure (SMILES): Cn1ncnc1C1c2n[nH]c(=O)c3cc(F)cc(c23)NC1c1ccc(F)cc1 (stereo not drawn) + NC1CCC(NC2CC2c2ccccc2)CC1
pIC50 [1]: < 7.00
pIC50 [2]: < 7.00
pIC50 [3]: < 7.00
pIC50 [4]: < 7.00
pIC50 [5]: < 7.00
viability, T/C [26]: 101%
viability, T/C [27]: 96%
viability, T/C [28]: 94.8%
viability, T/C [29]: 95.3%
viability, T/C [6]: 106%
viability, T/C [7]: 92.5%
viability, T/C [30]: 108%
viability, T/C [31]: 110%
viability, T/C [32]: 116%
viability, T/C [33]: 92.2%
viability, T/C [10]: 97.6%
viability, T/C [11]: 99.5%
viability, T/C [34]: 115%
viability, T/C [35]: 112%
viability, T/C [36]: 96.8%
viability, T/C [37]: 112%
viability, T/C [14]: 111%
viability, T/C [15]: 87%
viability, T/C [38]: 107%
viability, T/C [39]: 101%
viability, T/C [40]: 99.4%
viability, T/C [41]: 98.9%
viability, T/C [18]: 89.7%
viability, T/C [19]: 85.9%
viability, T/C [42]: 94.5%
viability, T/C [43]: 91.2%
viability, T/C [44]: 94.6%
viability, T/C [45]: 86.8%
viability, T/C [22]: 83.7%
viability, T/C [23]: 87.3%

pIC50 (curve of compound): > 8.50
Structure (SMILES): O=C(C=Cn1cnc(-c2cc(C(F)(F)F)cc(C(F)(F)F)c2)n1)NNc1cnccn1
viability, T/C (compound 0.00316 µM): 19.9% and 22.1%
viability, T/C (compound 0.01 µM): 8.55% and 22.4%
viability, T/C (compound 0.0316 µM): 6.32% and 7.96%
viability, T/C (compound 0.1 µM): 3.87% and 4.72%
viability, T/C (compound 0.316 µM): 2.92% and 3.05%
viability, T/C (compound 1 µM): 2.37% and 2.41%

pIC50 (curve of compound): 8.67 and 8.56
Structure (SMILES): CC[C@@]1(O)C(=O)OCc2c1cc1n(c2=O)Cc2cc3c(CN(C)C)c(O)ccc3nc2-1
viability, T/C (compound 0.000316 µM): 105% and 95.3%
viability, T/C (compound 0.001 µM): 84.7% and 94.4%
viability, T/C (compound 0.00316 µM): 32.5% and 43.5%
viability, T/C (compound 0.01 µM): 10.2% and 9.41%
viability, T/C (compound 0.0316 µM): 6.03% and 5.47%
viability, T/C (compound 0.1 µM): 3.25% and 3.14%

pIC50 (curve of compound): 6.42 and 6.13
Structure (SMILES): COc1ccc([C@@H](O)c2cc(-c3ncnc4cc(N5CCOCC5)ccc34)c(F)cc2Cl)nn1
viability, T/C (compound 0.0316 µM): 91.6% and 95.8%
viability, T/C (compound 0.1 µM): 79.4% and 83.2%
viability, T/C (compound 0.316 µM): 53.7% and 74.8%
viability, T/C (compound 1 µM): 29.1% and 41.5%
viability, T/C (compound 3.16 µM): 9.45% and 15%
viability, T/C (compound 10 µM): 6.34% and 4.43%

Structure (SMILES): CC[C@@]1(O)C(=O)OCc2c1cc1n(c2=O)Cc2cc3c(CN(C)C)c(O)ccc3nc2-1 + NC1CCC(NC2CC2c2ccccc2)CC1
pIC50 [1]: 8.69
pIC50 [2]: 8.71
pIC50 [3]: 8.67
pIC50 [4]: 8.65
pIC50 [5]: 8.73
viability, T/C [26]: 98.8%
viability, T/C [27]: 86.5%
viability, T/C [28]: 27.2%
viability, T/C [29]: 8.74%
viability, T/C [6]: 4.98%
viability, T/C [7]: 3.65%
viability, T/C [30]: 113%
viability, T/C [31]: 78.6%
viability, T/C [32]: 28.8%
viability, T/C [33]: 8.08%
viability, T/C [10]: 5.09%
viability, T/C [11]: 3.1%
viability, T/C [34]: 98.9%
viability, T/C [35]: 84.8%
viability, T/C [36]: 31.4%
viability, T/C [37]: 8.25%
viability, T/C [14]: 5.11%
viability, T/C [15]: 2.94%
viability, T/C [38]: 91.6%
viability, T/C [39]: 83.5%
viability, T/C [40]: 35.2%
viability, T/C [41]: 9.52%
viability, T/C [18]: 5.25%
viability, T/C [19]: 3.35%
viability, T/C [42]: 95%
viability, T/C [43]: 71%
viability, T/C [44]: 31.8%
viability, T/C [45]: 12%
viability, T/C [22]: 4.67%
viability, T/C [23]: 3.15%

pIC50 (curve of compound): > 9.50
Structure (SMILES): CC(C)CC(NC(=O)C(Cc1ccccc1)NC(=O)c1cnccn1)B(O)O (stereo not drawn)
viability, T/C (compound 0.000316 µM): 9.44% and 1.92%
viability, T/C (compound 0.001 µM): 1.9% and 1.46%
viability, T/C (compound 0.00316 µM): 1.14% and 0.84%
viability, T/C (compound 0.01 µM): 0.78% and 0.64%
viability, T/C (compound 0.0316 µM): 0.63% and 0.42%
viability, T/C (compound 0.1 µM): 0.67% and 0.41%

Structure (SMILES): CC1COCCN1c1cc(-c2ccnn2C)c2ccnc(-c3ccn[nH]3)c2n1 (stereo not drawn) + NC1CC1c1ccc(-c2cccc(O)c2)cc1
pIC50 [1]: > 8.50
pIC50 [2]: > 8.50
pIC50 [3]: > 8.50
pIC50 [4]: > 8.50
pIC50 [5]: > 8.50
viability, T/C [28]: 27.6%
viability, T/C [29]: 16.8%
viability, T/C [6]: 8.87%
viability, T/C [7]: 6.42%
viability, T/C [8]: 5.35%
viability, T/C [9]: 4.21%
viability, T/C [32]: 25.8%
viability, T/C [33]: 15.6%
viability, T/C [10]: 8.79%
viability, T/C [11]: 6.08%
viability, T/C [12]: 5.05%
viability, T/C [13]: 4.22%
viability, T/C [36]: 23.5%
viability, T/C [37]: 14.9%
viability, T/C [14]: 8.57%
viability, T/C [15]: 6.23%
viability, T/C [16]: 4.88%
viability, T/C [17]: 4.83%
viability, T/C [40]: 22%
viability, T/C [41]: 16%
viability, T/C [18]: 8.3%
viability, T/C [19]: 5.96%
viability, T/C [20]: 5.3%
viability, T/C [21]: 4.55%
viability, T/C [44]: 16.9%
viability, T/C [45]: 12.8%
viability, T/C [22]: 6.32%
viability, T/C [23]: 5%
viability, T/C [24]: 4.59%
viability, T/C [25]: 3.83%

Structure (SMILES): Nc1ncn(C2CC(O)C(CO)O2)c(=O)n1 (stereo not drawn) + NC1CC1c1ccc(-c2cccc(O)c2)cc1
pIC50 [1]: 7.05
pIC50 [2]: 7.04
pIC50 [3]: 7.05
pIC50 [4]: 7.02
pIC50 [5]: 7.20
viability, T/C [28]: 102%
viability, T/C [29]: 99.1%
viability, T/C [6]: 78.3%
viability, T/C [7]: 45.8%
viability, T/C [8]: 37.3%
viability, T/C [9]: 28.2%
viability, T/C [32]: 113%
viability, T/C [33]: 95%
viability, T/C [10]: 88.4%
viability, T/C [11]: 44.2%
viability, T/C [12]: 32.9%
viability, T/C [13]: 27.9%
viability, T/C [36]: 105%
viability, T/C [37]: 105%
viability, T/C [14]: 83.4%
viability, T/C [15]: 45.8%
viability, T/C [16]: 32.5%
viability, T/C [17]: 27.1%
viability, T/C [40]: 111%
viability, T/C [41]: 108%
viability, T/C [18]: 85.5%
viability, T/C [19]: 48.4%
viability, T/C [20]: 30.6%
viability, T/C [21]: 25.1%
viability, T/C [44]: 92.4%
viability, T/C [45]: 78.3%
viability, T/C [22]: 67.8%
viability, T/C [23]: 38.3%
viability, T/C [24]: 28%
viability, T/C [25]: 26.7%
